# According to article PMC9403976, “Elucidating the path to Plasmodium prolyl-tRNA synthetase inhibitors that overcome halofuginone resistance” (Nature Communications, 2022):
# Values joined by “and” are separate entries in the source; they are usually repeats but may differ in a detail not shown here. Equal values may be shown once. Read-outs that look alike come from different tables or passages of the source.
# Legend:
# [1] = system: halofuginone-induced P. falciparum (elevated proline homeostasis); assay: P. falciparum ABS growth assay, SYBR Green, 72 h, halofuginone-induced parasites; format: cell-based, Plasmodium falciparum
# Description: (§1) Parasites were maintained under standard culture conditions as described previously[56],[57]. […] The P. falciparum Dd2 cell lines used in this study (Dd2-2D4, halofuginone-induced, and HFGR-I) have previously undergone whole genome sequencing in our labs. They were also routinely assayed and EC50 values determined using the ABS growth assay (see below) with a panel of standard antimalarial compounds, including halofuginone which has differential activity for the three Dd2 lines used in these experiments. Data were cross-referenced for consistency with literature reported values and data previously acquired in the lab.
# (§2) This assay was performed as previously described. In short, P. falciparum erythrocytic-stage parasites at 1% parasitemia and 1% hematocrit in RPMI + 0.5% Albumax were seeded at 40 μL/well in 384-well plates with test compounds in triplicate, dose-response format with 10 μM dihydroartemisinin as a kill-control and blank (no compound) wells as a growth-control. […] After 72 h, growth was quantified by measuring fluorescence (Molecular Devices SpectraMax iD5) following SYBR Green 1 staining. Data were analyzed in Excel and plotted in PRISM (V. 8.4.3–9.1.0, GraphPad).
# PfcProRS = target: T1, PfcProRS (Plasmodium falciparum, UniProt Q8I5R7); format: binding; settings: single replicates
# T1 construct: made in house; host or cells: E. coli SoluBL-21
# T1 sequence (Q8I5R7 249-746): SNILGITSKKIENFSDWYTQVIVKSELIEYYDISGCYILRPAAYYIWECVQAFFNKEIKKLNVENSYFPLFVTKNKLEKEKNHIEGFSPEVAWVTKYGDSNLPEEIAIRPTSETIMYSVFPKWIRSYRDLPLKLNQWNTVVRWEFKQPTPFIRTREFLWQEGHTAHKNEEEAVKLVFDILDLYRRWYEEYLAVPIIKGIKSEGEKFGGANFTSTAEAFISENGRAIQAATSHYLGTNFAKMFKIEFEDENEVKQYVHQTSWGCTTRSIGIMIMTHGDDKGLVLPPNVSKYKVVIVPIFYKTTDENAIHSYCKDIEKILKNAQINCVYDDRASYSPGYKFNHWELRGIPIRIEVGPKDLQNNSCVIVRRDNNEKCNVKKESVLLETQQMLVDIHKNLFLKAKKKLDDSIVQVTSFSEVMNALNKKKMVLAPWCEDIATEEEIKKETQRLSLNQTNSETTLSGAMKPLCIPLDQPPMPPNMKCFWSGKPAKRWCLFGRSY
# [2] = system: HFGR-I P. falciparum (elevated proline homeostasis and PfcProRS^L482H); assay: P. falciparum ABS growth assay, SYBR Green, 72 h, HFGR-I parasites; format: cell-based, Plasmodium falciparum
# Description: as §1, §2
# P. falciparum Dd2-2D4 = assay: P. falciparum asexual blood stage (ABS) growth assay, SYBR Green, 72 h, wild-type parasites; format: cell-based, Plasmodium falciparum; settings: Plasmodium falciparum, DD2; SI Fig 16b; values on -log scale; read-out: ABS - Dd2-2D4 (converted)
# HsProRS = HsProRS (Homo sapiens, UniProt P07814); assay: TR-FRET ligand displacement assay with tracer MAT379 (CoraFluor-1-Halo and anti-His6 antibody formats); format: binding; parameters: made in house; host or cells: E. coli SoluBL-21; settings: for TR-FRET dose-response, normalized signal (SI Fig 11): individual replicates
# Sequence of HsProRS (P07814 996-1512): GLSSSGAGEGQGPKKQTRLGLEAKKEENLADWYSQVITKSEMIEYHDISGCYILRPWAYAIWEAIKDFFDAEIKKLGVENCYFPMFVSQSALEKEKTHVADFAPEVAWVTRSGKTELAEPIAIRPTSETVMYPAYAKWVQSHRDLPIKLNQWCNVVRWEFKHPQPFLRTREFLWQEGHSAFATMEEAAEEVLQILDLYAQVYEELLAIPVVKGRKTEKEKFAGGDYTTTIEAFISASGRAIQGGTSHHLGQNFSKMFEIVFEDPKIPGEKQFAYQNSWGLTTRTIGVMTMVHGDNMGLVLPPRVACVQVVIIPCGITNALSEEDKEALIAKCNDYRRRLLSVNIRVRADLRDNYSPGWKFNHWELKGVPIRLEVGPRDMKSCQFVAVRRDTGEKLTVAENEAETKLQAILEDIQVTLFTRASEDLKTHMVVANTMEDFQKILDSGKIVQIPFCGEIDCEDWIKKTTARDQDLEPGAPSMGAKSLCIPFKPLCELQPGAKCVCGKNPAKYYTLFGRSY
smiles,measurement,setting,value
O=C(NC1Cc2ccccc2C1)c1nccnc1NC(=O)N1CCC(CO)CC1 [compound 11],"dose-response value, Replicates 1-3 (SI Fig 2e)",[1]; Log[inhibitor] (M) -5.408,12
same,EC50,"[1]; Plasmodium falciparum, DD2, read-out: Dd2 (EC50 [nM]) halofuginone-induced mean",2470 nM
same,"dose-response signal (normalized), SI Fig 8",PfcProRS; Log[inhibitor] (M) -5.000,5.60E-02 and 7.55E-02 and 4.27E-02
same,"dose-response signal (normalized), SI Fig 8",PfcProRS; Log[inhibitor] (M) -5.301,7.92E-02 and 2.41E-02 and 4.88E-02
same,"dose-response signal (normalized), SI Fig 8",PfcProRS; Log[inhibitor] (M) -5.601,9.80E-02 and 1.87E-03 and 7.44E-02
same,"dose-response signal (normalized), SI Fig 8",PfcProRS; Log[inhibitor] (M) -5.904,2.50E-01 and 1.37E-01 and 2.03E-01
same,"dose-response signal (normalized), SI Fig 8",PfcProRS; Log[inhibitor] (M) -6.208,3.69E-01 and 3.33E-01 and 3.17E-01
same,"dose-response signal (normalized), SI Fig 8",PfcProRS; Log[inhibitor] (M) -6.509,6.08E-01 and 6.11E-01 and 6.37E-01
same,"dose-response signal (normalized), SI Fig 8",PfcProRS; Log[inhibitor] (M) -6.796,7.29E-01 and 7.94E-01 and 7.90E-01
same,"dose-response signal (normalized), SI Fig 8",PfcProRS; Log[inhibitor] (M) -7.108,8.18E-01 and 8.62E-01 and 9.40E-01
same,"dose-response signal (normalized), SI Fig 8",PfcProRS; Log[inhibitor] (M) -7.409,1.03E+00 and 1.01E+00 and 8.87E-01
same,"dose-response signal (normalized), SI Fig 8",PfcProRS; Log[inhibitor] (M) -7.710,1.08E+00 and 9.42E-01 and 9.86E-01
same,"dose-response signal (normalized), SI Fig 8",PfcProRS; Log[inhibitor] (M) -8.000,1.04E+00 and 9.91E-01 and 1.06E+00
same,"dose-response signal (normalized), SI Fig 8",PfcProRS; Log[inhibitor] (M) -8.301,1.09E+00 and 1.02E+00 and 1.00E+00
same,"dose-response signal (normalized), SI Fig 8",PfcProRS; Log[inhibitor] (M) -8.602,1.07E+00 and 9.31E-01 and 1.05E+00
same,"dose-response signal (normalized), SI Fig 8",PfcProRS; Log[inhibitor] (M) -9.000,8.46E-01 and 1.03E+00 and 9.88E-01
same,"dose-response signal (normalized), SI Fig 8",PfcProRS; Log[inhibitor] (M) -9.301,1.09E+00 and 1.13E+00 and 1.15E+00
same,"dose-response value, Replicates 1-3 (SI Fig 2f)",[2]; Log[inhibitor] (M) -5.000,0
same,EC50,"[2]; Plasmodium falciparum, DD2, read-out: Dd2 (EC50 [nM]) HFGR1 mean",1910 nM
same,EC50,P. falciparum Dd2-2D4,711 nM
same,Kd,"HsProRS; HsProRS (KD [nM]) + 100 μM proline mean, + 100 μM proline",8.42 nM
same,Kd,"HsProRS; HsProRS (KD [nM]) mean, no added proline/ATP (-)",265 nM
same,"normalized TR-FRET ligand displacement signal, dose-response replicates (SI Fig 6)",HsProRS; Log[inhibitor] (M) -5.000,7.29E-02 and 8.36E-02 and 3.81E-02
same,"TR-FRET dose-response, normalized signal (SI Fig 11)",HsProRS; Log[inhibitor] (M) -5.000,-1.28E-03 and -3.43E-02 and 2.65E-03
same,"normalized TR-FRET ligand displacement signal, dose-response replicates (SI Fig 6)",HsProRS; Log[inhibitor] (M) -5.301,1.45E-01 and 1.02E-01 and 9.61E-02
same,"TR-FRET dose-response, normalized signal (SI Fig 11)",HsProRS; Log[inhibitor] (M) -5.301,2.77E-02 and 5.85E-02 and -1.28E-02
same,"normalized TR-FRET ligand displacement signal, dose-response replicates (SI Fig 6)",HsProRS; Log[inhibitor] (M) -5.601,2.34E-01 and 2.43E-01 and 2.83E-01
same,"TR-FRET dose-response, normalized signal (SI Fig 11)",HsProRS; Log[inhibitor] (M) -5.601,8.35E-02 and 4.98E-02 and 9.15E-02
same,"normalized TR-FRET ligand displacement signal, dose-response replicates (SI Fig 6)",HsProRS; Log[inhibitor] (M) -5.904,4.84E-01 and 4.37E-01 and 4.52E-01
same,"TR-FRET dose-response, normalized signal (SI Fig 11)",HsProRS; Log[inhibitor] (M) -5.904,2.07E-01 and 2.25E-01 and 2.22E-01
same,"normalized TR-FRET ligand displacement signal, dose-response replicates (SI Fig 6)",HsProRS; Log[inhibitor] (M) -6.208,6.54E-01 and 5.62E-01 and 6.80E-01
same,"TR-FRET dose-response, normalized signal (SI Fig 11)",HsProRS; Log[inhibitor] (M) -6.208,3.66E-01 and 3.44E-01 and 3.52E-01
same,"normalized TR-FRET ligand displacement signal, dose-response replicates (SI Fig 6)",HsProRS; Log[inhibitor] (M) -6.509,6.98E-01 and 7.35E-01 and 8.42E-01
same,"TR-FRET dose-response, normalized signal (SI Fig 11)",HsProRS; Log[inhibitor] (M) -6.509,5.64E-01 and 5.20E-01 and 5.33E-01
same,"normalized TR-FRET ligand displacement signal, dose-response replicates (SI Fig 6)",HsProRS; Log[inhibitor] (M) -6.796,1.06E+00 (2×) and 1.05E+00
same,"TR-FRET dose-response, normalized signal (SI Fig 11)",HsProRS; Log[inhibitor] (M) -6.796,7.28E-01 and 6.74E-01 and 6.24E-01
same,"normalized TR-FRET ligand displacement signal, dose-response replicates (SI Fig 6)",HsProRS; Log[inhibitor] (M) -7.108,8.92E-01 and 1.10E+00 and 9.75E-01
same,"TR-FRET dose-response, normalized signal (SI Fig 11)",HsProRS; Log[inhibitor] (M) -7.108,7.19E-01 and 7.66E-01 and 7.53E-01
same,"normalized TR-FRET ligand displacement signal, dose-response replicates (SI Fig 6)",HsProRS; Log[inhibitor] (M) -7.409,9.25E-01 and 9.47E-01 and 1.04E+00
same,"TR-FRET dose-response, normalized signal (SI Fig 11)",HsProRS; Log[inhibitor] (M) -7.409,8.67E-01 and 8.81E-01 and 8.44E-01
same,"normalized TR-FRET ligand displacement signal, dose-response replicates (SI Fig 6)",HsProRS; Log[inhibitor] (M) -7.710,9.81E-01 and 9.55E-01 and 9.75E-01
same,"TR-FRET dose-response, normalized signal (SI Fig 11)",HsProRS; Log[inhibitor] (M) -7.710,9.29E-01 and 8.46E-01 and 9.70E-01
same,"normalized TR-FRET ligand displacement signal, dose-response replicates (SI Fig 6)",HsProRS; Log[inhibitor] (M) -8.000,9.65E-01 and 1.05E+00 and 9.80E-01
same,"TR-FRET dose-response, normalized signal (SI Fig 11)",HsProRS; Log[inhibitor] (M) -8.000,9.63E-01 and 9.74E-01 and 9.23E-01
same,"normalized TR-FRET ligand displacement signal, dose-response replicates (SI Fig 6)",HsProRS; Log[inhibitor] (M) -8.301,1.00E+00 and 9.43E-01 and 1.07E+00
same,"TR-FRET dose-response, normalized signal (SI Fig 11)",HsProRS; Log[inhibitor] (M) -8.301,9.20E-01 and 9.31E-01 and 8.90E-01
same,"normalized TR-FRET ligand displacement signal, dose-response replicates (SI Fig 6)",HsProRS; Log[inhibitor] (M) -8.602,1.02E+00 (2×) and 9.43E-01
same,"TR-FRET dose-response, normalized signal (SI Fig 11)",HsProRS; Log[inhibitor] (M) -8.602,8.99E-01 and 8.64E-01 and 8.60E-01
same,"normalized TR-FRET ligand displacement signal, dose-response replicates (SI Fig 6)",HsProRS; Log[inhibitor] (M) -9.000,9.86E-01 and 1.02E+00 and 1.11E+00
same,"TR-FRET dose-response, normalized signal (SI Fig 11)",HsProRS; Log[inhibitor] (M) -9.000,9.04E-01 and 9.68E-01 and 8.68E-01
same,"normalized TR-FRET ligand displacement signal, dose-response replicates (SI Fig 6)",HsProRS; Log[inhibitor] (M) -9.301,1.03E+00 (2×) and 9.04E-01
same,"TR-FRET dose-response, normalized signal (SI Fig 11)",HsProRS; Log[inhibitor] (M) -9.301,8.86E-01 and 9.16E-01 and 9.33E-01
